# Experimental data taken from ChEMBL document CHEMBL4804284.
# Experiments:
# Design in all cases: scale not given: the % may be the effect or the level left
# [1] = test system: Tyrosine-protein kinase ABL1 (Homo sapiens), P00519 [F317I]; assay: Inhibition of DNA-tagged phosphorylated human ABL1 F317I mutant assessed as percent of control at 50000 nM by qPCR analysis relative to control
# [2] = target: Tyrosine-protein kinase JAK1 (Homo sapiens) (UniProt P23458); assay: Inhibition of DNA-tagged human JAK1 JH2 pseudokinase domain assessed as percent of control at 50000 nM by qPCR analysis relative to control
# [3] = target: Receptor-interacting serine/threonine-protein kinase 2 (Homo sapiens) (UniProt O43353); assay: Inhibition of DNA-tagged human RIPK2 assessed as percent of control at 50000 nM by qPCR analysis relative to control
# [4] = target: Serine/threonine-protein kinase Nek5 (Homo sapiens) (UniProt Q6P3R8); assay: Inhibition of DNA-tagged human NEK5 assessed as percent of control at 50000 nM by qPCR analysis relative to control
# [5] = target: Mitogen-activated protein kinase kinase kinase 5 (Homo sapiens) (UniProt Q99683); assay: Inhibition of DNA-tagged human ASK1 assessed as percent of control at 50000 nM by qPCR analysis relative to control
# [6] = target: Phosphatidylinositol 4-phosphate 5-kinase type-1 gamma (Homo sapiens) (UniProt O60331); assay: Inhibition of DNA-tagged human PIP5K1C assessed as percent of control at 50000 nM by qPCR analysis relative to control
# [7] = target: 5'-AMP-activated protein kinase catalytic subunit alpha-2 (Homo sapiens) (UniProt P54646); assay: Inhibition of DNA-tagged human AMPK-alpha2 assessed as percent of control at 50000 nM by qPCR analysis relative to control
# [8] = target: Ephrin type-A receptor 1 (Homo sapiens) (UniProt P21709); assay: Inhibition of DNA-tagged human EPHA1 assessed as percent of control at 50000 nM by qPCR analysis relative to control
# [9] = target: Mitogen-activated protein kinase 6 (Homo sapiens) (UniProt Q16659); assay: Inhibition of DNA-tagged human ERK3 assessed as percent of control at 50000 nM by qPCR analysis relative to control
# [10] = target: Microtubule-associated serine/threonine-protein kinase 1 (Homo sapiens) (UniProt Q9Y2H9); assay: Inhibition of DNA-tagged human MAST1 assessed as percent of control at 50000 nM by qPCR analysis relative to control
# [11] = target: Phosphatidylinositol 4,5-bisphosphate 3-kinase catalytic subunit delta isoform (Homo sapiens) (UniProt O00329); assay: Inhibition of DNA-tagged human PIK3CD assessed as percent of control at 50000 nM by qPCR analysis relative to control
# [12] = target: Interleukin-1 receptor-associated kinase 4 (Homo sapiens) (UniProt Q9NWZ3); assay: Inhibition of DNA-tagged human IRAK4 assessed as percent of control at 50000 nM by qPCR analysis relative to control
# [13] = target: Serine/threonine-protein kinase Nek7 (Homo sapiens) (UniProt Q8TDX7); assay: Inhibition of DNA-tagged human NEK7 assessed as percent of control at 50000 nM by qPCR analysis relative to control
# [14] = target: Cyclin-G-associated kinase (Homo sapiens) (UniProt O14976); assay: Inhibition of DNA-tagged human GAK assessed as percent of control at 50000 nM by qPCR analysis relative to control
# [15] = target: Cyclin-dependent kinase 11A (Homo sapiens) (UniProt Q9UQ88); assay: Inhibition of DNA-tagged human CDC2L2 assessed as percent of control at 50000 nM by qPCR analysis relative to control
# [16] = test system: Mast/stem cell growth factor receptor Kit (Homo sapiens), P10721 [V559D,T670I]; assay: Inhibition of DNA-tagged human KIT V559D/T670I double mutant assessed as percent of control at 50000 nM by qPCR analysis relative to control
# [17] = target: Serine/threonine-protein kinase TAO2 (Homo sapiens) (UniProt Q9UL54); assay: Inhibition of DNA-tagged human TAOK2 assessed as percent of control at 50000 nM by qPCR analysis relative to control
# [18] = target: Mitogen-activated protein kinase 4 (Homo sapiens) (UniProt P31152); assay: Inhibition of DNA-tagged human ERK4 assessed as percent of control at 50000 nM by qPCR analysis relative to control
# [19] = target: BDNF/NT-3 growth factors receptor (Homo sapiens) (UniProt Q16620); assay: Inhibition of DNA-tagged human TRKB assessed as percent of control at 50000 nM by qPCR analysis relative to control
# [20] = target: Casein kinase II subunit alpha' (Homo sapiens) (UniProt P19784); assay: Inhibition of DNA-tagged human CSNK2A2 assessed as percent of control at 50000 nM by qPCR analysis relative to control
# [21] = target: Tyrosine-protein kinase ABL2 (Homo sapiens) (UniProt P42684); assay: Inhibition of DNA-tagged human ABL2 assessed as percent of control at 50000 nM by qPCR analysis relative to control
# [22] = target: Myosin light chain kinase, smooth muscle (Homo sapiens) (UniProt Q15746); assay: Inhibition of DNA-tagged human MYLK assessed as percent of control at 50000 nM by qPCR analysis relative to control
# [23] = target: Casein kinase I isoform alpha (Homo sapiens) (UniProt P48729); assay: Inhibition of DNA-tagged human CSNK1A1 assessed as percent of control at 50000 nM by qPCR analysis relative to control
# [24] = target: Ephrin type-A receptor 7 (Homo sapiens) (UniProt Q15375); assay: Inhibition of DNA-tagged human EPHA7 assessed as percent of control at 50000 nM by qPCR analysis relative to control
# [25] = target: SRSF protein kinase 1 (Homo sapiens) (UniProt Q96SB4); assay: Inhibition of DNA-tagged human SRPK1 assessed as percent of control at 50000 nM by qPCR analysis relative to control
# [26] = target: Ribosomal protein S6 kinase alpha-2 (Homo sapiens) (UniProt Q15349); assay: Inhibition of DNA-tagged human N-terminal RSK3 kinase domain 1 assessed as percent of control at 50000 nM by qPCR analysis relative to control
# [27] = target: Serine/threonine-protein kinase mTOR (Homo sapiens) (UniProt P42345); assay: Inhibition of DNA-tagged human MTOR assessed as percent of control at 50000 nM by qPCR analysis relative to control
# [28] = target: Cyclin-dependent kinase 17 (Homo sapiens) (UniProt Q00537); assay: Inhibition of DNA-tagged human PCTK2 assessed as percent of control at 50000 nM by qPCR analysis relative to control
# [29] = target: Vascular endothelial growth factor receptor 1 (Homo sapiens) (UniProt P17948); assay: Inhibition of DNA-tagged human FLT1 assessed as percent of control at 50000 nM by qPCR analysis relative to control
# Sequence of Phosphatidylinositol 4,5-bisphosphate 3-kinase catalytic subunit delta isoform (Homo sapiens) (O00329 whole entry, canonical isoform): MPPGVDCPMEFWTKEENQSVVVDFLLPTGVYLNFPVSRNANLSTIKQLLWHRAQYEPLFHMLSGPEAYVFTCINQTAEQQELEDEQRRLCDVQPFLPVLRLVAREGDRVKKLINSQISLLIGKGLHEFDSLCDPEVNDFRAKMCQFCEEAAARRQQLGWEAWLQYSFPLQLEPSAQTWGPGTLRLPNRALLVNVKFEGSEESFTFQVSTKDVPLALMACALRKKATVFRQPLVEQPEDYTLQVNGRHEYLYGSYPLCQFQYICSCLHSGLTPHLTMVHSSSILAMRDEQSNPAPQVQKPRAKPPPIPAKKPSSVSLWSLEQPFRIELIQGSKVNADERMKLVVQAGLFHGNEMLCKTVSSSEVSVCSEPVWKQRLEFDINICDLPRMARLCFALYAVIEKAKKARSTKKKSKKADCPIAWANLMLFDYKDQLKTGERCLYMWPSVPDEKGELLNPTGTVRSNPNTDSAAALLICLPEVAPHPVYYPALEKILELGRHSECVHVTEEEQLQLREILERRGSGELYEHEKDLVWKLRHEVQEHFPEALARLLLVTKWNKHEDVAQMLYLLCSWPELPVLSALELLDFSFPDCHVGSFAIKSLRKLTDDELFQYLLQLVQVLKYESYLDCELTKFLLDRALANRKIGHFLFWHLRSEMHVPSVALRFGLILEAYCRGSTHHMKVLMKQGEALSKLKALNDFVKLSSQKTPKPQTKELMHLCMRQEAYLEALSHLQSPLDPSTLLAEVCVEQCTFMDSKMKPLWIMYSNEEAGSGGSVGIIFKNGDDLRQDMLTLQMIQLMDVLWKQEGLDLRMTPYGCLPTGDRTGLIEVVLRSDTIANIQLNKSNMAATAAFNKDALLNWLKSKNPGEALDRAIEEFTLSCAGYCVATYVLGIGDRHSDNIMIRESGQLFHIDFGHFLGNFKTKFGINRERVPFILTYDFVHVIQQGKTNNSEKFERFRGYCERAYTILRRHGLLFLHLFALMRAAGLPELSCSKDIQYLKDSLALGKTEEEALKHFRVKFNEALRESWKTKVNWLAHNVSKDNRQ
# Sequence of Mitogen-activated protein kinase kinase kinase 5 (Homo sapiens) (Q99683 whole entry): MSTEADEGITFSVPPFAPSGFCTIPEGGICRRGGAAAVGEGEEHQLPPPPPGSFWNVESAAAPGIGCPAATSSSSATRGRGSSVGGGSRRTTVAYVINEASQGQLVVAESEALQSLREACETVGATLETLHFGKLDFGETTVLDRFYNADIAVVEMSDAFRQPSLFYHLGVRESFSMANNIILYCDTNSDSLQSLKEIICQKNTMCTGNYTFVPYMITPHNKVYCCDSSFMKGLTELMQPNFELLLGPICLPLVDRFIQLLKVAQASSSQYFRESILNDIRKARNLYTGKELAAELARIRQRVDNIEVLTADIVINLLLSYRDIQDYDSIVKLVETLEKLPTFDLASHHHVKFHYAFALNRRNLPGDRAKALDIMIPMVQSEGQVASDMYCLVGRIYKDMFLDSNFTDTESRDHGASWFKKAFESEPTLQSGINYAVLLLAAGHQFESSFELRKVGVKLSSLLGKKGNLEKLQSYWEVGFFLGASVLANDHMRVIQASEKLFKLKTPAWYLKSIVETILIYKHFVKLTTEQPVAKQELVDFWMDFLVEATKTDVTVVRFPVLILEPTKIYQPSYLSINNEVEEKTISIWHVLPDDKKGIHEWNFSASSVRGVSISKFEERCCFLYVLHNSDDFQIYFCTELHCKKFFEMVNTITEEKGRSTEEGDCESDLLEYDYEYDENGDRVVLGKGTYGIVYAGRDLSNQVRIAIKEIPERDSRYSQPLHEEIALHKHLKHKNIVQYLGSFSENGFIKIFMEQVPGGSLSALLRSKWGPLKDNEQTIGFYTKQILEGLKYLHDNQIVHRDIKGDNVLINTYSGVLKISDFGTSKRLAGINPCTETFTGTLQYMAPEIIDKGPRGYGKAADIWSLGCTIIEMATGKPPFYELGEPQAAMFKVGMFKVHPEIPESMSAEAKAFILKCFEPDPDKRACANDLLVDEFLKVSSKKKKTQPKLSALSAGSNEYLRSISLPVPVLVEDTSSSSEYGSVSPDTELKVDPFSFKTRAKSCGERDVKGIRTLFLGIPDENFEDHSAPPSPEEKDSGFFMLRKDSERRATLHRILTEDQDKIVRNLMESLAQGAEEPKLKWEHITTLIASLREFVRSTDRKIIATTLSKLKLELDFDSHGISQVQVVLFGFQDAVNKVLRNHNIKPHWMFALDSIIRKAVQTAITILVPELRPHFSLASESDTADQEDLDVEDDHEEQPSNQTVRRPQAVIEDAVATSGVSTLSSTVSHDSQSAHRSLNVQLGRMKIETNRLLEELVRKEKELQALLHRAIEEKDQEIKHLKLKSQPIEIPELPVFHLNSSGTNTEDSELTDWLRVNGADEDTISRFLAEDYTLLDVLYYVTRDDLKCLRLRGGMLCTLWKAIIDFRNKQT
# Sequence of Serine/threonine-protein kinase TAO2 (Homo sapiens) (Q9UL54 whole entry): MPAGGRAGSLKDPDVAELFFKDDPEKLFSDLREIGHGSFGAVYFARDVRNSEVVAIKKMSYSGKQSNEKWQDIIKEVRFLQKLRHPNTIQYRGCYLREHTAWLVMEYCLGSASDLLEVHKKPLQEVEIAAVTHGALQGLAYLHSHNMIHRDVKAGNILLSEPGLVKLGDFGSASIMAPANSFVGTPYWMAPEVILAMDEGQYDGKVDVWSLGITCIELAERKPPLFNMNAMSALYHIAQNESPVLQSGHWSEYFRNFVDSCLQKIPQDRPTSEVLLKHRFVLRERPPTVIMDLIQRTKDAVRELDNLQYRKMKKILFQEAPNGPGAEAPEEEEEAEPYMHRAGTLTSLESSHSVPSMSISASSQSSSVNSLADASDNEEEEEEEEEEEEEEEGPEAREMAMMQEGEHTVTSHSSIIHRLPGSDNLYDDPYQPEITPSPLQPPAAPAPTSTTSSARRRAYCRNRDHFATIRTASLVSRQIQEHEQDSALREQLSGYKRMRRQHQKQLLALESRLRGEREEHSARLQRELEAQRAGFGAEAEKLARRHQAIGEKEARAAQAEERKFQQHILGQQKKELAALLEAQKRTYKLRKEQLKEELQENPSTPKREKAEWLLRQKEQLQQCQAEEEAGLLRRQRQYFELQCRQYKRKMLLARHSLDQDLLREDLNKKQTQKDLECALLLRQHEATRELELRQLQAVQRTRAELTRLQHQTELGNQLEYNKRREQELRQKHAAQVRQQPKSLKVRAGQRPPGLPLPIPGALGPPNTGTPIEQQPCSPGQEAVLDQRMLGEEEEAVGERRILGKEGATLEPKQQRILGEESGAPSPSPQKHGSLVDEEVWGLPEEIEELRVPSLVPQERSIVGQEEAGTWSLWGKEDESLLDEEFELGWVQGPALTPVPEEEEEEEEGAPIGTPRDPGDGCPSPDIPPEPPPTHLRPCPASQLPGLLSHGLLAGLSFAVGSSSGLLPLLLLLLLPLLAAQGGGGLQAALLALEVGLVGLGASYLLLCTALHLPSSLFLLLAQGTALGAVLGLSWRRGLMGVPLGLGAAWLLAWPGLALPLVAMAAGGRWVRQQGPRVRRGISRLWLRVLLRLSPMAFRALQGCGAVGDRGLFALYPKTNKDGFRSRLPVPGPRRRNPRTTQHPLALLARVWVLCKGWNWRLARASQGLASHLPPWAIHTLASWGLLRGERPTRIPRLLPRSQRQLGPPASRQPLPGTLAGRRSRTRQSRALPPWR
# Sequence of 5'-AMP-activated protein kinase catalytic subunit alpha-2 (Homo sapiens) (P54646 whole entry, looked up): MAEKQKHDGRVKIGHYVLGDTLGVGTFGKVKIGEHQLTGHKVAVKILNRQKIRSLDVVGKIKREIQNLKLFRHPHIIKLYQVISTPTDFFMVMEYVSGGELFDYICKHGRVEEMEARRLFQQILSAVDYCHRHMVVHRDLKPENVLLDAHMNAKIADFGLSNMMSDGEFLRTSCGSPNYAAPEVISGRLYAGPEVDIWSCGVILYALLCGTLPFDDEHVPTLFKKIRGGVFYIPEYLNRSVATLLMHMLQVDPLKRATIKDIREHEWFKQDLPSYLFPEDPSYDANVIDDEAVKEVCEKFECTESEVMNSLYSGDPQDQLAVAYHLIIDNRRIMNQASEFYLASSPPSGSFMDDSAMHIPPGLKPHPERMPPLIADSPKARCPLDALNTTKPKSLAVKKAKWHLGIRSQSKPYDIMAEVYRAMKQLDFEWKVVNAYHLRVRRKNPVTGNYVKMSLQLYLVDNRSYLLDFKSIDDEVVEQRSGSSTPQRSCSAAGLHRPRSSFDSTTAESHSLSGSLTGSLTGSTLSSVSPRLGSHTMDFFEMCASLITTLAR
# Sequence of SRSF protein kinase 1 (Homo sapiens) (Q96SB4 whole entry, the tested form may be a part): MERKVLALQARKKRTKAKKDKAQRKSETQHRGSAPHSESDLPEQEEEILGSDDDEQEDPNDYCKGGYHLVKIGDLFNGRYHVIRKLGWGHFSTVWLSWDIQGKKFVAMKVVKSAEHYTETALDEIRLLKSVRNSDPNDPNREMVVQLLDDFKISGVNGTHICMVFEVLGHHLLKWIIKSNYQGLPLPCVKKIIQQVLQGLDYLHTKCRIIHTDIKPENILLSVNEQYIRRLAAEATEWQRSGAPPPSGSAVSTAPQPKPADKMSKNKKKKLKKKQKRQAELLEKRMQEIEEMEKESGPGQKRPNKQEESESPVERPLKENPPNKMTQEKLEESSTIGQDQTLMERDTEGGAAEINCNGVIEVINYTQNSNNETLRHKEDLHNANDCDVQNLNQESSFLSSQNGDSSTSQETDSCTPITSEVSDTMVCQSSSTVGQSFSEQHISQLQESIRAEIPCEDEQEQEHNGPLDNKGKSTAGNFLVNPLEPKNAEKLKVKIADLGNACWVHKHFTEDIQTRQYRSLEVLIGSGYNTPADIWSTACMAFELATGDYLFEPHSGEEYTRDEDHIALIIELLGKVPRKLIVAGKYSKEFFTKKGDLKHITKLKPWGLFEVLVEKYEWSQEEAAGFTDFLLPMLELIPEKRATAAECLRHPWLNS
smiles,measurement,setting,value
CN1C(=O)/C(=C2/C(=O)Nc3ccccc32)c2ccccc21,Activity,[1],100%
same,Activity,[2],100%
same,Activity,[3],100%
same,Activity,[4],96%
same,Activity,[5],100%
same,Activity,[6],81%
same,Activity,[7],100%
same,Activity,[8],100%
same,Activity,[9],100%
same,Activity,[10],85%
same,Activity,[11],95%
same,Activity,[12],75%
same,Activity,[13],59%
same,Activity,[14],98%
same,Activity,[15],100%
same,Activity,[16],93%
same,Activity,[17],84%
same,Activity,[18],86%
same,Activity,[19],88%
same,Activity,[20],82%
same,Activity,[21],89%
same,Activity,[22],82%
same,Activity,[23],100%
same,Activity,[24],100%
same,Activity,[25],100%
same,Activity,[26],100%
same,Activity,[27],100%
same,Activity,[28],96%
same,Activity,[29],93%
